Test results published in publication PMC5515969, “Effects of 31 FDA approved small-molecule kinase inhibitors on isolated rat liver mitochondria” (Archives of Toxicology, 2016).
Where two headings read alike, the source gives them in different places. Marks after values point to notes of the source that are not given here.

Columns and labels:
[1] = test system: isolated rat liver mitochondria; test: Mitochondrial oxygen consumption (glutamate/malate or succinate driven, state 4 and state 3); assay type: biochemical; conditions: for Glutamate/malate driven respiration State 3 / Glutamate/malate driven respiration State 4 / Succinate-driven respiration State 3 / Succinate-driven respiration State 4: oxygen consumption, DMSO-treated = 1; on State 3 respiration driven by succinate at 10XCmax: key: 0 indicates that the drug had no effects (negative); on State 3 respiration driven by succinate at 1XCmax: key: 0 indicates that the drug had no effects (negative)
In short: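 Rat liver mitochondria (1 mg/ml protein) exposed 5 min to kinase inhibitors in 0.1% DMSO, then O2 consumption measured by Clark-type electrode with glutamate/malate or succinate (state 4), ADP added after 3 min (state 3). Rates normalized to 0.1% DMSO controls set to 1.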

RCC II = molecular target: T1, RCC II (Rattus norvegicus, UniProt P21913+Q641Z9+Q6PCT8+Q920L2); test: RCC II activity in submitochondrial particles; assay type: biochemical; design: key: activity relative to DMSO-treated controls (control set as 1 = 100%); conditions: DMSO treated samples set as 1
T1 construct: Submitochondrial particles were prepared by subjecting the intact mitochondria to three successive freeze–thaw cycles; from tissue; host or cells: rat liver mitochondria, used as submitochondrial particles
T1 sequence (Q920L2 35-656): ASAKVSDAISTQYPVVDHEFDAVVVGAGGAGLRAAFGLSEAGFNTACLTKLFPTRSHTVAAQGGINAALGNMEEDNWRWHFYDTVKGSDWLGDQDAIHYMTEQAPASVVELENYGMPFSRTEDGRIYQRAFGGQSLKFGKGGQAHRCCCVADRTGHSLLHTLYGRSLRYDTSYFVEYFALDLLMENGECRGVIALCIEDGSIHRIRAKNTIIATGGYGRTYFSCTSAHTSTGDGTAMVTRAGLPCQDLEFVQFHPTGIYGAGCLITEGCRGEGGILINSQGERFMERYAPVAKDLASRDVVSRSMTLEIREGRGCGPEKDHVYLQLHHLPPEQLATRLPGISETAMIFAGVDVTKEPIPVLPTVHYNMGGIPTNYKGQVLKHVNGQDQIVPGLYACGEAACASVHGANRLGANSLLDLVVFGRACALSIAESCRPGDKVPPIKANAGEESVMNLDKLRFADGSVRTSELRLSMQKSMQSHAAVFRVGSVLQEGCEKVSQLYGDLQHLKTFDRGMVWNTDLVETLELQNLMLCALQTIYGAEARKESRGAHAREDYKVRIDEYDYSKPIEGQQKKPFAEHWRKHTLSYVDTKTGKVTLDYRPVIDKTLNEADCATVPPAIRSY
T1 sequence (P21913 31-282): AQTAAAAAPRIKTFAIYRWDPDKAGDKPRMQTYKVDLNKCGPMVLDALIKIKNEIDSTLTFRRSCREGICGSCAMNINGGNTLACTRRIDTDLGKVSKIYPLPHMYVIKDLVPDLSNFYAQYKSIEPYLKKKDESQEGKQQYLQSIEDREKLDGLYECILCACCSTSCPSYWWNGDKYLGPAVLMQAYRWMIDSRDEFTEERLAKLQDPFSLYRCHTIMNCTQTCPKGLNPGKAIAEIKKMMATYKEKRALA
T1 sequence (Q641Z9 1-169): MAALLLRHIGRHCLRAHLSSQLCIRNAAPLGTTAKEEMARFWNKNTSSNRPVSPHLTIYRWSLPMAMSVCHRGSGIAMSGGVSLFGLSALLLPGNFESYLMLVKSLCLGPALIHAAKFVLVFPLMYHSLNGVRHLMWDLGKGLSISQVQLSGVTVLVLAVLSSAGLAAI
T1 sequence (Q6PCT8 57-159): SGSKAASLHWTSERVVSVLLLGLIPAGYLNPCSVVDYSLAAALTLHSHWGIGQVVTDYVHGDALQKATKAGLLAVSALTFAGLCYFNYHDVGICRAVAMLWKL
In short: (§1)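 First, submitochondrial particles (1 mg/ml) are incubated with inhibitor for 15 min. Next, complex activities are followed spectrophotometrically, with RCC I taken as the difference between buffers lacking and containing rotenone. Finally, activities are expressed relative to DMSO controls set at 1.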

RCC III = RCC III activity in submitochondrial particles; assay type: biochemical, rat; design: key to RCC III at 100XCmax: activity relative to DMSO-treated controls (control set as 1 = 100%); conditions: 100XCmax
In short: as §1

RCC IV = RCC IV activity in submitochondrial particles; assay type: biochemical, rat; design: key to RCC IV at 50XCmax / RCC IV at 100XCmax: activity relative to DMSO-treated controls (control set as 1 = 100%); conditions: 50XCmax; DMSO treated samples set as 1; in %
In short: as §1

RCC V = RCC V activity in submitochondrial particles; assay type: biochemical, rat; conditions: DMSO treated samples set as 1; on RCC V at 5XCmax: key: 0 indicates that the drug had no effects (negative)
In short: as §1

[2] = test system: isolated rat liver mitochondria; test: Mitochondrial inner membrane potential (MMP), Rhodamine 123; assay type: biochemical
Source text: Fig. 3 KI effects on mitochondrial inner membrane potential (MMP). […] In a, c, data are means and standard derivations from three separate experiments. *p < 0.05 as compared to DMSO-treated samples at the end of experiments. In b, data are means of two independent experiments

[3] = test system: isolated rat liver mitochondria; conditions: positive control alamethicin treated samples
[4] = cited from earlier work
[5] = test system: isolated rat liver mitochondria; test: Mitochondrial ROS production (CM-H2DCFDA)
[6] = 1XCmax, DMSO treated samples set as 1
[7] = 2.5XCmax, DMSO treated samples set as 1
[8] = 5XCmax, DMSO treated samples set as 1
[9] = 10XCmax, DMSO treated samples set as 1
[10] = 20XCmax, DMSO treated samples set as 1
[11] = 30XCmax, DMSO treated samples set as 1
[12] = 50XCmax, DMSO treated samples set as 1
[13] = 100XCmax, DMSO treated samples set as 1

SMILES: CC(C)(C)c1nc(-c2cccc(NS(=O)(=O)c3c(F)cccc3F)c2F)c(-c2ccnc(N)n2)s1 [Dabrafenib]
- State 3 respiration driven by glutamate/malate at 1XCmax [1, 6]: 0
- State 3 respiration driven by succinate at 1XCmax [1, 6]: 0
- State 4 respiration driven by glutamate/malate at 1XCmax [1, 6]: 0
- State 4 respiration driven by succinate at 1XCmax [1, 6]: 0
- State 3 respiration driven by glutamate/malate at 2.5XCmax [1, 7]: 0
- State 3 respiration driven by succinate at 2.5XCmax [1, 7]: 0
- State 4 respiration driven by glutamate/malate at 2.5XCmax [1, 7]: 0
- State 4 respiration driven by succinate at 2.5XCmax [1, 7]: 0
- State 3 respiration driven by glutamate/malate at 5XCmax [1, 8]: 0
- State 3 respiration driven by succinate at 5XCmax [1, 8]: 0
- State 4 respiration driven by glutamate/malate at 5XCmax [1, 8]: 0
- State 4 respiration driven by succinate at 5XCmax [1, 8]: 0
- Glutamate/malate driven respiration State 3 ([1]; 10-fold Cmax): 0.94 ± 0.04
- Glutamate/malate driven respiration State 4 ([1]; 10-fold Cmax): 1.35 ± 0.19
- Succinate-driven respiration State 3 ([1]; 10-fold Cmax): 0.97 ± 0.07
- Succinate-driven respiration State 4 ([1]; 10-fold Cmax): 1.38 ± 0.13
- State 3 respiration driven by glutamate/malate at 10XCmax [1, 9]: 0
- State 3 respiration driven by succinate at 10XCmax [1, 9]: 0
- State 4 respiration driven by glutamate/malate at 10XCmax [1, 9]: 1.35±0.19
- State 4 respiration driven by succinate at 10XCmax [1, 9]: 1.38±0.13
- Glutamate/malate driven respiration State 3 ([1]; 20-fold Cmax): 0.90 ± 0.05
- Glutamate/malate driven respiration State 4 ([1]; 20-fold Cmax): 1.59 ± 0.05
- Succinate-driven respiration State 3 ([1]; 20-fold Cmax): 0.65 ± 0.01
- Succinate-driven respiration State 4 ([1]; 20-fold Cmax): 1.31 ± 0.02
- State 3 respiration driven by glutamate/malate at 20XCmax [1, 10]: 0
- State 3 respiration driven by succinate at 20XCmax [1, 10]: 0.65±0.01
- State 4 respiration driven by glutamate/malate at 20XCmax [1, 10]: 1.59±0.05
- State 4 respiration driven by succinate at 20XCmax [1, 10]: 1.31±0.02
- Glutamate/malate driven respiration State 3 ([1]; 30-fold Cmax): 0.71 ± 0.03
- Glutamate/malate driven respiration State 4 ([1]; 30-fold Cmax): 2.22 ± 0.24
- Succinate-driven respiration State 3 ([1]; 30-fold Cmax): 0.59 ± 0.07
- Succinate-driven respiration State 4 ([1]; 30-fold Cmax): 1.52 ± 0.12
- State 3 respiration driven by glutamate/malate at 30XCmax [1, 11]: 0.71±0.03
- State 3 respiration driven by succinate at 30XCmax [1, 11]: 0.59±0.07
- State 4 respiration driven by glutamate/malate at 30XCmax [1, 11]: 2.22±0.24
- State 4 respiration driven by succinate at 30XCmax [1, 11]: 1.52±0.12
- Glutamate/malate driven respiration State 3 ([1]; 50-fold Cmax): 0.56 ± 0.05
- Glutamate/malate driven respiration State 4 ([1]; 50-fold Cmax): 2.42 ± 0.21
- Succinate-driven respiration State 3 ([1]; 50-fold Cmax): 0.44 ± 0.10
- Succinate-driven respiration State 4 ([1]; 50-fold Cmax): 1.69 ± 0.30
- State 3 respiration driven by glutamate/malate at 50XCmax [1, 12]: 0.56±0.05
- State 3 respiration driven by succinate at 50XCmax [1, 12]: 0.44±0.10
- State 4 respiration driven by glutamate/malate at 50XCmax [1, 12]: 2.42±0.21
- State 4 respiration driven by succinate at 50XCmax [1, 12]: 1.69±0.30
- Glutamate/malate driven respiration State 3 ([1]; 100-fold Cmax): 0.41 ± 0.05
- Glutamate/malate driven respiration State 4 ([1]; 100-fold Cmax): 2.49 ± 0.32
- Succinate-driven respiration State 3 ([1]; 100-fold Cmax): 0.28 ± 0.01
- Succinate-driven respiration State 4 ([1]; 100-fold Cmax): 1.03 ± 0.09
- State 3 respiration driven by glutamate/malate at 100XCmax [1, 13]: 0.41±0.05
- State 3 respiration driven by succinate at 100XCmax [1, 13]: 0.28±0.01
- State 4 respiration driven by glutamate/malate at 100XCmax [1, 13]: 2.49±0.32
- State 4 respiration driven by succinate at 100XCmax [1, 13]: 0
- effect on state 4 respiration ([1]; highest tested concentrations): significant increases
- lowest concentration significantly affecting mitochondrial oxygen consumption ([1]; tested at 1 to 100-fold Cmax): tenfold
- RCC II at 1.0XCmax (RCC II; 1.0XCmax): 0
- RCC II at 2.5XCmax (RCC II; 2.5XCmax): 0
- RCC II at 5XCmax (RCC II; 5XCmax): 0
- RCC II at 10XCmax (RCC II; 10XCmax): 0
- RCC II at 20XCmax (RCC II; 20XCmax): 0
- RCC II at 30XCmax (RCC II; 30XCmax): 0
- RCC II at 50XCmax (RCC II; 50XCmax): 0
- RCC II at 100XCmax (RCC II; 100XCmax): 0
- RCC III at 100XCmax (RCC III): 0
- RCC IV at 50XCmax (RCC IV): 0
- RCC V at 5XCmax (RCC V; 5XCmax): 0
- RCC V at 50XCmax (RCC V; 50XCmax): 0
- lowest concentration decreasing MMP [2]: 20 fold Cmax
- MMP measured by Rhodamine 123 at 1XCmax ([2]; 1XCmax, difference in signal between KI and DMSO treated samples at the end of experiments): 0
- MMP measured by Rhodamine 123 at 2.5XCmax ([2]; 2.5XCmax, difference in signal between KI and DMSO treated samples at the end of experiments): 0
- MMP measured by Rhodamine 123 at 5XCmax ([2]; 5XCmax, difference in signal between KI and DMSO treated samples at the end of experiments): 0
- MMP measured by Rhodamine 123 at 10XCmax ([2]; 10XCmax, difference in signal between KI and DMSO treated samples at the end of experiments): 0
- MMP measured by Rhodamine 123 at 20XCmax ([2]; 20XCmax, difference in signal between KI and DMSO treated samples at the end of experiments): 660±95*
- MMP measured by Rhodamine 123 at 30XCmax ([2]; 30XCmax, difference in signal between KI and DMSO treated samples at the end of experiments): 773±60*
- MMP measured by Rhodamine 123 at 50XCmax ([2]; 50XCmax, difference in signal between KI and DMSO treated samples at the end of experiments): 953±54*
- MMP measured by Rhodamine 123 at 100XCmax ([2]; 100XCmax, difference in signal between KI and DMSO treated samples at the end of experiments): 926±89*
- effect on MMP ([2]; up to 100-fold Cmax or highest testable concentration): decrease in MMP
- Cytochrome c release 1XCmax ([3]; 1XCmax): 0
- Cytochrome c release 2.5XCmax ([3]; 2.5XCmax): 0
- Cytochrome c release 5XCmax ([3]; 5XCmax): 19.44±2.10 percentage of the positive control group
- Cytochrome c release 10XCmax ([3]; 10XCmax): 15.99±0.85 percentage of the positive control group
- Cytochrome c release 20XCmax ([3]; 20XCmax): 17.52±7.37 percentage of the positive control group
- Cytochrome c release 30XCmax ([3]; 30XCmax): 17.54±2.16 percentage of the positive control group
- Cytochrome c release 50XCmax ([3]; 50XCmax): 21.81±7.02 percentage of the positive control group
- Cytochrome c release 100XCmax ([3]; 100XCmax): 15.21±0.35 percentage of the positive control group
- DILI potential (based on labeling) ([4]; 1 DILI positive, 0 negative according to labeling, ref product labeling): 0
- DILI potential (based on labeling) ([4]; ref FDA product labeling): 0
- lowest concentration triggering ROS overproduction [5]: 50 fold Cmax
- ROS measured by CM-H2DCFDA at 1XCmax [5, 6]: 0
- ROS measured by CM-H2DCFDA at 2.5XCmax [5, 7]: 0
- ROS measured by CM-H2DCFDA at 5XCmax [5, 8]: 0
- ROS measured by CM-H2DCFDA at 10XCmax [5, 9]: 0
- ROS measured by CM-H2DCFDA at 20XCmax [5, 10]: 0
- ROS measured by CM-H2DCFDA at 30XCmax [5, 11]: 0
- ROS measured by CM-H2DCFDA at 50XCmax [5, 12]: 2.23±0.44
- ROS measured by CM-H2DCFDA at 100XCmax [5, 13]: 1.80±0.16
- effect on ROS production ([5]; highest tested concentrations): significantly ROS production
